Results on one compound are retold here after patent publication EP4741374A1, “TREPROSTINIL DERIVATIVE, AND PREPARATION METHOD THEREFOR AND USE THEREOF” (CF PharmTech HongKong Limited, priority 2023, dated 2025).

One data set deals with SD rats. Briefly: U46619-induced rat acute pulmonary arterial pressure rise model, airway nebulized administration (RVSP). The format is in vivo. An excerpt:
U46619 was a stable analogue of thromboxane A2 (TXA2), which activated the downstream IP3 signal by binding to the thromboxane A2 receptor to promote vasoconstriction, platelet aggregation and the like. Influences of compound C16-TR and equimolar compounds Ia-1, Ia-2, Ia-3, R-11 and R-12 at different time points after airway nebulized administration on pulmonary hypertension of rats were studied by using the U46619-induced rat pulmonary arterial pressure rise mode, which were compared with that of equimolar TRE after airway nebulized administration.
Preparation of test sample: a required amount of compound TRE was taken and added into a sterile EP tube, and each tube was added with an appropriate amount of DMSO for dissolution to prepare a stock solution (100 mg/mL). Compounds C16-TR, la-1, la-2, Ia-3, R-11 and R-12 were added with appropriate amounts of DMSO and dissolved in the original bottles to prepare stock solutions (100 mg/mL), and then the stock solutions were transferred to sterile EP tubes. Each above stock solution was hermetically stored in the dark in a refrigerator at 4°C. When the stock solution was tested, an appropriate amount of stock solution was taken and added into a new sterile EP tube, and diluted with DMSO and 1×PBS to a target concentration (working solution) wherein the solvent was 3% DMSO/1×PBS.
Preparation of modeling agent: 900 µL of methyl acetate was added into an original bottle of U46619 and mixed evenly to prepare 1 mg/mL(1 µg/µL) stock solution, which was divided into 10 µL (1 µg/µL) per sterile EP tube and stored in a refrigerator at -20°C. On the day of modeling, the stock solution was taken out and balanced at room temperature and constant temperature, and each tube was added with an appropriate amount of 0.9% sodium chloride solution (sterile) to be diluted 20-fold, so as to prepare a working solution with a concentration of 50 ng/µL.
Airway nebulized administration dosages of compound TRE and the test compounds were equimolar quantities calculated based on TRE. The dosage of compound TRE group (n=3) was 13.3 µg/kg, the dosage of compound C16-TR group (n=5) was 20.9 µg/kg, the dosage of compound Ia-1 group (n=3) was 21.2 µg/kg, the dosage of compound Ia-2 group (n=6) was 22.1 µg/kg, the dosage of compound Ia-3 group (n=6) was 23.1 µg/kg, the dosage of compound R-11 group (n=3) was 21.9 µg/kg, and the dosage of compound R-12 group (n=3) was 21.7 µg/kg. There were also a model control group (n=1) and a solvent control group (n=3).
The SD rats were injected with U46619 (25 µg /kg) through the left jugular vein at different time points after airway nebulized administration, the peak value of RVSP rise after injection with U46619 was observed and recorded, and the inhibition percentage on the RVSP rise was calculated by comparing with the basic RVSP value. The rats in the model control group were administered with U46619 by intravenous injection immediately after successful catheterization and measurement of the basic RVSP. RVSP of all animals were detected by right cardiac catheterization, and respiratory conditions of the animals were observed generally. Table-2 Time points of administrating U46619 in various groups

A short description of data set [1]: Stability of treprostinil derivative in ethanol/water solutions of different pH (light irradiation, 40°C, 60°C). The format is physicochemical. The procedure: 1 mol/L hydrochloric acid and/or sodium hydroxide aqueous solution and distilled water were used to prepare 100 mL solutions with different pH values (3.0, 4.0, 5.0, 6.0, 7.0, 8.0, 9.0 and 10.0) for later use. 640 mg of compound Ia-2 was taken and added with 640 mL of 90% ethanol as a diluent to completely dissolve the compound, and then prepared into 1 mg/mL sample solution 1 for later use. • (1) […] of 90% ethanol, the sample solution 1 and 80 mL of each aqueous solution with different pH value (3.0, 5.0, 7.0 or 9.0) were taken and mixed evenly (ethanol: water =1.5: 1), and filled 2 mL per vial to obtain total 90 vials of samples, and the samples were divided into three groups equally for stability examination under the condition of light-irradiation, high-temperature of 40°C or high-temperature of 60°C. The samples of the two high-temperature stability examination groups were packaged in aluminum foil bags, 10 vials per bag; and the samples of the light-irradiation stability examination group were packaged in transparent bags, 10 vials per bag. • (2) 80 mL of 90% ethanol, the sample solution 1 and 80 mL of each aqueous solution with different pH value (4.0, 6.0, 8.0 or 10.0) were taken and mixed evenly (ethanol: water =2: 1), and then filled, grouped and packaged as above.
After the above samples were placed under conditions as described in Table-1, 15 vials of samples were taken from each group at each detection time point for detection for each pH value solution, comprising: the content of compound, the content of related substances (impurities) and liquid properties (whether there was turbidity, stratification or color change). The content of compound and the content of related substances were calculated by calculating the percentage of area occupied by the main ingredient through an area normalization method. Table-1 Placement conditions for stability examination of compound Ia-2

With `CCCCC[C@H](O)CC[C@@H]1[C@H]2Cc3cccc(OCC(=O)OCCCCCCCCOCCCCc4ccccc4)c3C[C@H]2C[C@H]1O` [Compound Ia-2], in the data set with SD rats (1 to 48 hours after airway nebulized administration, equimolar doses), the “antihypertensive effect and duration, overall” value was “stronger antihypertensive effects than C16-TR and longer durations”. The antihypertensive effect result is “obvious antihypertensive effects” in the data set on SD rats (24 hours after airway nebulized administration, equimolar to 13.3 µg/kg TRE) and “absence of an antihypertensive effect” in the data set on SD rats (48 hours after airway nebulized administration). In addition, the content of compound result in data set [1] (each group (pH 3-10), placement at 40°C for 30 days) was “higher than 80%”; in data set [1] (ethanol: water 1.5:1 or 2.0:1, different pH values, after placement for 10 days), “higher than 95%”; in data set [1] (solution with pH=5.0~9.0, placement at 60°C for 30 days) it was “higher than 90%”. Also, the ethyl ester impurities in data set [1] (extreme conditions: pH=3, 60°C for 30 days, pH=10, 40°C for 30 days or 60°C more than 10 days) was 8.0~9.0%; in data set [1] (high-temperature placement, other conditions), “less than 4.0%”; in data set [1] (light irradiation, each group, after 10 days) it was “less than 1.80%”.
